Data on 1 compound can be found in patent US8821847B2, “Perfume compositions” (Givaudan Nederland Services B.V., priority 2006, dated 2014).

This assay concerns P. vulgaris NCTC4175. Put plainly: Urease assay: effect of fragrance on ammonia production (pH of urea-supplemented microbial suspension). Particulars: result in words. It counts as cell-based. The procedure:
Urease Assay—Estimation of Fragrance and Fragrance Ingredients Effect on Ammonia Production The method adopted was based on the rapid method devised by C. A. Stuart, Elizabeth van Stratum and Robert Rustigan Further Studies on Urease Production by Proteus and Related Organisms J. Bacteriol. 1945, 49:437-444. SSR Medium: 380 ml distilled water, 364 mg KH2PO4, 380 mg Na2HPO4, 8 g Urea, 40 mg Yeast extract, 20 ml 0.02% phenol red indicator, pH 6.8, solution filter sterilised. Culture: Liquid culture of P. vulgaris NCTC4175 was prepared by adding loops of fresh culture from solid media (Tryptone Soya Agar) to sterile 0.1% special peptone solution. Absorbance of culture was adjusted to be OD610 nm>2.3 Fragrances were aseptically prepared at 2500 ppm in medium in duplicate (5 ml volumes) using solubiser Synperonic 91/10 at ratio of 1:2 fragrance: solubiliser. In addition 5 ml volumes of positive and negative controls were prepared. Positive controls and all test solutions were inoculated by adding 200 μl of prepared culture, mixed and incubated for 24 hours @37° C. No culture was added to the negative growth controls. Initially solutions were orange in colour. Urease activity can be noted by the production of a purple/red colour. The degree of urease activity/ammonia production was assessed by pH electrode.

Turning to `CCC(=O)N(CC)c1cccc(C)c1` [N-ethyl-N-(3-methylphenyl)propananoide, N-ethyl-N-(3-methylphenyl)propanamide], the urease inhibitory efficacy entry is “highly active”.
